Measured values as given in patent US7371766B2, “Curcumin analogs with anti-tumor and anti-angiogenic properties” (Emory University, priority 1999, dated 2008).

Columns and labels:
[1] = tested on: HUVECS; experiment: Emory Laboratory Cell Screen, Neutral Red, HUVECS; type: cell-based, human; conditions: Homo sapiens, HUVEC, 72 hours, read-out: Median Growth Inhibitory Concentration (GI50)
Method: (§1) Human tumor and endothelial cell lines were treated for 72 hours with compounds at a minimum of four concentrations between 0.1 μM-40 μM. Neutral Red assay was used to calculate cell viability.

[2] = tested on: RPMI 7951; experiment: Emory Laboratory Cell Screen, Neutral Red, RPMI 7951; type: cell-based, human; conditions: Homo sapiens, RPMI 7951, Melanoma, 72 hours, read-out: Median Growth Inhibitory Concentration (GI50)
Method: as §1

[3] = tested on: Human tumor and endothelial cell lines; experiment: Emory Laboratory Cell Screen, mean over cell lines; type: cell-based; conditions: Homo sapiens, Endothelial cell; Mean over the Emory cell lines; 72 hours; read-out: Median Growth Inhibitory Concentration (GI50), Mean
Method: as §1

[4] = tested on: Vascular Endothelial Growth Factor (VEGF) production by human prostate cancer cell line PC-3; experiment: VEGF ELISA, PC-3; type: cell-based; conditions: for VEGF (% of DMSO): DMSO = 100%
[5] = tested on: Tissue Factor (TF) production by human prostate cancer cell line DU-145; experiment: TF ELISA, DU-145; type: cell-based; conditions: 20 μM; for TF (% of DMSO): DMSO = 100%; for TF: mean of triplicate and S.D., DMSO 7699 ± 406
Method: (§2) Cells were treated with 1% Triton X-100 in PBS and left overnight at 4° C. overnight to solubilize TF. […] IMUBIND Tissue Factor ELISA Kit (American Diagnostica Inc, Greenwich, Conn.) was used to determine TF concentration in each sample. The ELISA was carried out according to manufacturer's procedure.

[6] = tested on: MDA-MB-231; experiment: Emory Laboratory Cell Screen, Neutral Red, MDA-MB-231; type: cell-based, human; conditions: Homo sapiens, MDA-MB-231, Breast Cancer, 72 hours, read-out: Median Growth Inhibitory Concentration (GI50)
Method: as §1

[7] = tested on: Vascular Endothelial Growth Factor (VEGF) production by human prostate cancer cell line DU-145; experiment: VEGF ELISA, DU-145; type: cell-based; conditions: for VEGF (% of DMSO): DMSO = 100%
[8] = tested on: Tissue Factor (TF) production by human melanoma cell line RPMI-7951; experiment: TF ELISA, RPMI-7951; type: cell-based
Method: (§3) IMUBIND Tissue Factor ELISA Kit (American Diagnostica Inc, Greenwich, Conn.) was used to determine TF concentration in each sample. The ELISA was carried out according to manufacturer's procedure.

[9] = tested on: MDA-MB-435; experiment: Emory Laboratory Cell Screen, Neutral Red, MDA-MB-435; type: cell-based, human; conditions: Homo sapiens, MDA-MB-435, Breast Cancer, 72 hours, read-out: Median Growth Inhibitory Concentration (GI50)
Method: as §1

[10] = tested on: Tissue Factor (TF) production by human breast cancer cell line MDA-MB-231; experiment: TF ELISA, MDA-MB-231; type: cell-based
Method: as §3

[11] = tested on: Tissue Factor (TF) production by human prostate cancer cell line PC-3; experiment: TF ELISA, PC-3; type: cell-based; conditions: 20 μM; for TF (% of DMSO): DMSO = 100%; for TF: mean of triplicate and S.D., DMSO 203 ± 6
Method: as §2

[12] = 20 μM, mean of triplicate and S.D., DMSO 2103 ± 100
[13] = Table 4, 20 μM, mean of triplicate and S.D.
[14] = 20 μM, mean of triplicate and S.D., DMSO 18760 ± 2633
[15] = Table 5, 5 μM, DMSO control 7054
[16] = Table 5, 20 μM, DMSO control 7054

Compound | GI50 [2] [µM] | GI50 [3] [µM] | VEGF (% of DMSO) ([4]; 20 μM) | VEGF [4, 12] [pg/mL] | VEGF ([4]; Table 4, 20 μM, DMSO = 100) [%] | VEGF [4, 13] [pg/mL] | TF (% of DMSO) [5] | TF [5] [pg/mL] | VEGF (% of DMSO) ([7]; 20 μM) | VEGF [7, 14] [pg/mL] | VEGF ([7]; Table 4, 20 μM, DMSO = 100) [%] | VEGF [7, 13] [pg/mL] | TF ([8]; 5 μM, DMSO = 100) [%] | TF ELISA ([8]; 5 μM, DMSO control 7054) [pg/ml/well] | TF ([8]; 20 μM, DMSO = 100) [%] | TF ELISA ([8]; 20 μM, DMSO control 7054) [pg/ml/well] | TF [8, 15] [pg/mL] | TF [8, 16] [pg/mL] | TF (% of DMSO) [11] | TF [11] [pg/mL] | also measured
COc1cc(/C=C/C(=O)CC(=O)/C=C/c2ccc(O)c(OC)c2)ccc1O [Curcumin] | 6.3 | 14.8 | (99%) | 2088 ± 103 | 99 | 2088 ± 103 | (93%) | 7134 ± 301 | (96%) | 17957 ± 1910 | 96 | 17957 ± 1910 | 126 | 7974 | 15 | 1026 | 8871 | 1026 | (68%) | 138 ± 10 | GI50 [1]: 25 µM; GI50 [6]: 11.6 µM; GI50 [9]: 16.3 µM; TF ([10]; 5 μM, DMSO = 100): 100%; TF ([10]; 5 μM, DMSO control 45753): 45814 pg/mL; TF ([10]; 10 μM, DMSO = 100): 98%; TF ([10]; 10 μM, DMSO control 45753): 44727 pg/mL
C(=C\c1ccccc1)/S/C=C/c1ccccc1 [EF15] | – | – | – | – | – | – | – | – | – | – | – | – | 106 | 7506 | 109 | 7663 | 7506 | 7663 | – | – | TF ([10]; 20 μM, DMSO = 100): 101%; TF ([10]; 20 μM, DMSO control 45753): 46394 pg/mL
O=C1C(=Cc2ccccc2O)CCCC1=Cc1ccccc1O [EF4, 2,6Bis(2-hydroxybenzylidene)cyclohexanone] | 3.6 | 3.6 | (2%) | 48 ± 83 | 2 | 48 ± 83 | (67%) | 5180 ± 420 | (55%) | 10274 ± 4467 | 55 | 10274 ± 4467 | – | – | – | – | – | – | (16%) | 33 ± 7 | –
